The assay has as its target T1, Q46 protein aggregates (Homo sapiens, UniProt P42858).
T1 construct: fused on or other part: GST at the N-terminus, cut off with thrombin before the test to start aggregation; The wells held aggregated Q46 without GST
Kind of assay: Q46 radioligand binding assay (RBA). The following applies: 10 nM ligand [3H3]MK-3328. The method in brief: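 Aggregates from thrombin-cleaved GST-Q46 (16 h, 37° C) at 5 μM monomer-equivalent were pre-incubated 20 min at room temperature with compound (1 μM to 30 pM) in 150 mM NaCl, 50 mM Tris pH 8.0, then 60 min at 37° C with 10 nM [^3H3]MK-3328. Bound radioactivity was filtered and counted; IC50 came from a four-parameter global fit normalized to vehicle and 3 μM unlabelled MK-3328.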

For orientation: IC50 means the point on the concentration scale where inhibition reaches its midpoint. High values mean lower potency, low ones higher potency.

Each structure is given as a SMILES string. A value given as a limit tells only on which side of the number the result lay.

T1 sequence (P42858 with tags, fused parts or gaps with the stated changes, form open): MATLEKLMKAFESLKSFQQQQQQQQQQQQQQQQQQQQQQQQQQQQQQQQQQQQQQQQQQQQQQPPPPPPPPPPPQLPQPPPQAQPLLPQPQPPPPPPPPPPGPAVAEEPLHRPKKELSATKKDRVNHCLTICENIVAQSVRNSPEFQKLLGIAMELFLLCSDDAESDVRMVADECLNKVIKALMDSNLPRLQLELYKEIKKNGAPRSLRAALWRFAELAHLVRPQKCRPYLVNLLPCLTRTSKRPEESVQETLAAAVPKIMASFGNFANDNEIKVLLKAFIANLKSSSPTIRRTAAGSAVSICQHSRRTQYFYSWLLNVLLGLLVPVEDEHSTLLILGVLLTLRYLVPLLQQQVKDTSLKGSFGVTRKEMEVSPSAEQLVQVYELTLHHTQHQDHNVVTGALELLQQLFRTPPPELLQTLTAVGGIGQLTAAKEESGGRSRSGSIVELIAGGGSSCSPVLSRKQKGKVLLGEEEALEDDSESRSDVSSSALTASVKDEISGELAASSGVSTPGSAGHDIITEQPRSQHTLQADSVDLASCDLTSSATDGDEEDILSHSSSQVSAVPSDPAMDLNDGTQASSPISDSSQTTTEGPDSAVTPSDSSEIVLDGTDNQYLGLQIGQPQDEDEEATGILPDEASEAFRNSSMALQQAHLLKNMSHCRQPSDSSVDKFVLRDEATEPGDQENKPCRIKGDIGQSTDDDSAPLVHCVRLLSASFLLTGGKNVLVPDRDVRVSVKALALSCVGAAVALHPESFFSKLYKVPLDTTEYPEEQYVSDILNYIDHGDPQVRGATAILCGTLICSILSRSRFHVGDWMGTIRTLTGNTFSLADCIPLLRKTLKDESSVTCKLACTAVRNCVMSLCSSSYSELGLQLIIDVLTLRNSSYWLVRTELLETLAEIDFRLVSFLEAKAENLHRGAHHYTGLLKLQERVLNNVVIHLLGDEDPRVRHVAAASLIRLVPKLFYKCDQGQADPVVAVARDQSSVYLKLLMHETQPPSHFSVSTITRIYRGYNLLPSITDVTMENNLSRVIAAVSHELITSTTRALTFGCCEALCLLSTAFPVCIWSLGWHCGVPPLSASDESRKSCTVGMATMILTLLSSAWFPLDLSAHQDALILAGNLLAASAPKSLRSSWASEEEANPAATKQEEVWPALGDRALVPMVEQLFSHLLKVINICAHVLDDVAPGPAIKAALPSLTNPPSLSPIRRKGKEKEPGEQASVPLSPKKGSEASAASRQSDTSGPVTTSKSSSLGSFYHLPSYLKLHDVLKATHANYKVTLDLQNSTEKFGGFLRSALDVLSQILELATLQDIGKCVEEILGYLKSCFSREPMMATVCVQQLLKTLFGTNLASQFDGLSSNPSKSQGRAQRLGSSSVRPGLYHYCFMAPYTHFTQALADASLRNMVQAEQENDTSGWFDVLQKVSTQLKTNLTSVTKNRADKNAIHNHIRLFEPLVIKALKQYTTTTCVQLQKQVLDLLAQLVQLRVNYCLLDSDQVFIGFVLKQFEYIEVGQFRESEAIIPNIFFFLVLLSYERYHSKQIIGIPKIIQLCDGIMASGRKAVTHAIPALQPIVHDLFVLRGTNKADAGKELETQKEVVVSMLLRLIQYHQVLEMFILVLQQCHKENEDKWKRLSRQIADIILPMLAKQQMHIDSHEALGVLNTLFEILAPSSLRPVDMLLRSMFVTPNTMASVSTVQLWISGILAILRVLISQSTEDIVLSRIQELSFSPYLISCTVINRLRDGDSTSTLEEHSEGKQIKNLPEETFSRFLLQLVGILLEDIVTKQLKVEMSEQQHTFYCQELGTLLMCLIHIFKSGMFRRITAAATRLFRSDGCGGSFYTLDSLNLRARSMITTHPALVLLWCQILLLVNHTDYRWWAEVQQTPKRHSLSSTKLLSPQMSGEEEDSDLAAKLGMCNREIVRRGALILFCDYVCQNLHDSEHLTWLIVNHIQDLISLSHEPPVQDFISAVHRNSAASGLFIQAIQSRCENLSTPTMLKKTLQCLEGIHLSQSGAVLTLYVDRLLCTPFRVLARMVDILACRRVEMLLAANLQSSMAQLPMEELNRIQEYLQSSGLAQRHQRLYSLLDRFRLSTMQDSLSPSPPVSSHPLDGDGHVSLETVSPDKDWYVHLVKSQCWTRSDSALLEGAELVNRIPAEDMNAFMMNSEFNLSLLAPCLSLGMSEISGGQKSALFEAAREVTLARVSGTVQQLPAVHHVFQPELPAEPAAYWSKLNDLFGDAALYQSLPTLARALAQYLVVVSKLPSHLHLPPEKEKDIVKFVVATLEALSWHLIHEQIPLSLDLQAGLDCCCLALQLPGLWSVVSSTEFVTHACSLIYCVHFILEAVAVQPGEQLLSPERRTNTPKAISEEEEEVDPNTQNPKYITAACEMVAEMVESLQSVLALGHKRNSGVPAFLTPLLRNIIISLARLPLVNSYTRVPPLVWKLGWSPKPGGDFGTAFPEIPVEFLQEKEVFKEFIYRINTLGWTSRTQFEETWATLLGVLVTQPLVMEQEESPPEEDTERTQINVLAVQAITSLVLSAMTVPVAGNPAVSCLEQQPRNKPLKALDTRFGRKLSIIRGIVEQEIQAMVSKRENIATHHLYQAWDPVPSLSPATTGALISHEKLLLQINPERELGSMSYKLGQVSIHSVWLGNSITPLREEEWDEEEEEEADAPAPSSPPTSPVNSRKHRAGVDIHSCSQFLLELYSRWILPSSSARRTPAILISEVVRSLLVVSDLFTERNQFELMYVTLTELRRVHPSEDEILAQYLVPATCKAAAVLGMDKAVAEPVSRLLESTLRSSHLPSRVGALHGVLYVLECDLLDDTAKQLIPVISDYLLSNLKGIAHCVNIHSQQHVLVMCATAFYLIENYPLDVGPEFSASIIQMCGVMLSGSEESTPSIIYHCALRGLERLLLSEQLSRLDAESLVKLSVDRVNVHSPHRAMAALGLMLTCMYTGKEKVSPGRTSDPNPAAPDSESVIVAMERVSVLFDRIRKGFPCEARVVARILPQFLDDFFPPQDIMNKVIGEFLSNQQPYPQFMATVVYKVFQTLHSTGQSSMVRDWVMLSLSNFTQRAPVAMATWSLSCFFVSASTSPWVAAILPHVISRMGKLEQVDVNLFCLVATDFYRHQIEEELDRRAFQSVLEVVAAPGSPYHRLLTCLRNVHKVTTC

Molecule `COc1ccc(C(=O)Nc2ccc3oc(-c4cccc(C)c4)nc3c2)nc1` [5-methoxy-N-[2-(3-methylphenyl)-1,3-benzoxazol-5-yl]pyridine-2-carboxamide] showed an IC50 of under 100 nM.

In turn, `COc1ccc(C(=O)Nc2ccc3oc(-c4cccnc4)nc3c2)nc1` [5-methoxy-N-[2-(pyridin-3-yl)-1,3-benzoxazol-5-yl]pyridine-2-carboxamide] displayed an IC50 of under 100 nM.

`COc1cncc(C(=O)Nc2ccc3oc(-c4cccnc4)nc3c2)c1` [5-methoxy-N-[2-(pyridin-3-yl)-1,3-benzoxazol-5-yl]pyridine-3-carboxamide] came in with an IC50 of under 100 nM.

On to `COc1ccc(NCc2ccc3oc(-c4cccnc4)nc3c2)nc1` [5-methoxy-N-{[2-(pyridin-3-yl)-1,3-benzoxazol-5-yl]methyl}pyridin-2-amine], for which the half-inhibitory concentration (IC50) is 100 to 500 nM.

Molecule `Cc1cncc(C(=O)Nc2ccc3oc(-c4cccnc4)nc3c2)c1` [5-methyl-N-[2-(pyridin-3-yl)-1,3-benzoxazol-5-yl]pyridine-3-carboxatmide] displayed an IC50 of under 100 nM.

With `CNC(=O)c1ccc(-c2nc3cc(OCc4ccc(O)cn4)ccc3o2)cn1` [5-{5-[(5-hydroxypyridin-2-yl)methoxy]-1,3-benzoxazol-2-yl}-N-methylpyridine-2-carboxamide], the IC50 is under 100 nM.

With `COc1ccc(COc2ccc3oc(-c4ccc(=O)[nH]c4)nc3c2)nc1` [5-{5-[(5-methoxypyridin-2-yl)methoxy]-1,3-benzoxazol-2-yl}-1,2-dihydropyridin-2-one], the IC50 is under 100 nM.

As for `COc1ccc(COc2ccc3oc(-c4cn(C)c(=O)cn4)nc3c2)nc1` [5-{5-[(5-methoxypyridin-2-yl)methoxy]-1,3-benzoxazol-2-yl}-1-methyl-1,2-dihydropyrazin-2-one], the IC50 was under 100 nM.

For `COc1ccc(COc2ccc3oc(-c4ccc(=O)n(C)c4)nc3c2)nc1` [5-{5-[(5-methoxypyridin-2-yl)methoxy]-1,3-benzoxazol-2-yl}-1-methyl-1,2-dihydropyridin-2-one], the half-inhibitory concentration (IC50) is under 100 nM.

`CNC(=O)c1ccc(-c2nc3cc(OCc4ccc(OC)cn4)ccc3o2)c[n+]1[O-]` [5-{5-[(5-methoxypyridin-2-yl)methoxy]-1,3-benzoxazol-2-yl}-2-(methylcarbamoyl)pyridin-1-ium-1-olate] returned an IC50 of under 100 nM.

Take `CNc1ccc(-c2nc3cc(OCc4ccc(OC)cn4)ccc3o2)cn1` [5-{5-[(5-methoxypyridin-2-yl)methoxy]-1,3-benzoxazol-2-yl}-N-methylpyridin-2-amine]: the 50% inhibitory concentration (IC50) is under 100 nM.

In turn, `CNC(=O)c1ccc(-c2nc3cc(OCc4ccc(OC)cn4)ccc3o2)cn1` [5-{5-[(5-methoxypyridin-2-yl)methoxy]-1,3-benzoxazol-2-yl}-N-methylpyridine-2-carboxamide] showed an IC50 of under 100 nM.

As to `COc1ccc(COc2ccc3oc(-c4ccc(N)nc4)nc3c2)nc1` [5-{5-[(5-methoxypyridin-2-yl)methoxy]-1,3-benzoxazol-2-yl}pyridin-2-amine], the IC50 is under 100 nM.

In turn, `C1=C(COc2ccc3oc(-c4cccnc4)nc3c2)N2CCN=C2S1` [5-{5H,6H-imidazo[2,1-b][1,3]thiazol-3-ylmethoxy}-2-(pyridin-3-yl)-1,3-benzoxazole] gave an IC50 of 100 to 500 nM.

`CNC(=O)c1ccc(-c2nc3cc(OCc4ccc(OC)cn4)cnc3o2)cn1` [5-{6-[(5-methoxypyridin-2-yl)methoxy]-[1,3]oxazolo[5,4-b]pyridin-2-yl}-N-methylpyridine-2-carboxamide] gave an IC50 of under 100 nM.

For the molecule `COc1ccc(OCc2ccc3oc(-c4cccnc4)nc3c2)nc1` [5-{[(5-methoxypyridin-2-yl)oxy]methyl}-2-(pyridin-3-yl)-1,3-benzoxazole], the IC50 was under 100 nM.

The molecule `Cn1nc(-c2nc3cc(OCc4ccc(OCCF)cn4)cnc3o2)ccc1=O` [6-(6-{[5-(2-fluoroethoxy)pyridin-2-yl]methoxy}-[1,3]oxazolo[5,4-b]pyridin-2-yl)-2-methyl-2,3-dihydropyridazin-3-one] displayed an IC50 of under 100 nM.

The molecule `Cn1cc(-c2nc3cc(OCc4ccc(N)cn4)cnc3o2)cn1` [6-({[2-(1-methyl-1H-pyrazol 4-yl)-[1,3]oxazolo[5,4-b]pyridin-6-yl]oxy}methyl)pyridin-3-amine] had an IC50 of 100 to 500 nM.

For `Cn1cc(-c2nc3cc(OCc4ccc(O)cn4)ccc3o2)cn1` [6-({[2-(1-methyl-1H-pyrazol-4-yl)-1,3-benzoxazol-5-yl]oxy}methyl)pyridin-3-ol], the IC50 was 100 to 500 nM.

For `Oc1ccc(COc2ccc3oc(-c4cccnc4)nc3c2)nc1` [6-({[2-(pyridin-3-yl)-1,3-benzoxazol-5-yl]oxy}methyl)pyridin-3-ol], the IC50 was under 100 nM.

Regarding `COc1ccc2c(c1)CCN(c1ccc3oc(-c4cccnc4)nc3c1)C2=O` [6-methoxy-2-[2-(pyridin-3-yl)-1,3-benzoxazol-5-yl]-1,2,3,4-tetrahydroisoquinolin-1-one], the IC50 fell in the range of 100 to 500 nM.

On to `COc1ccc2c(=O)n(-c3ccc4oc(-c5cccnc5)nc4c3)ccc2c1` [6-methoxy-2-[2-(pyridin-3-yl)-1,3-benzoxazol-5-yl]-1,2-dihydroisoquinolin-1-one], for which the IC50 is 100 to 500 nM.

With `COc1ccc(C(=O)Nc2ccc3oc(-c4cccc(C)c4)nc3c2)cn1` [6-methoxy-N-[2-(3-methylphenyl)-1,3-benzoxazol-5-yl]pyridine-3-carboxamide], the IC50 is under 100 nM.

In the case of `COc1cccc(C(=O)Nc2ccc3oc(-c4cccnc4)nc3c2)n1` [6-methoxy-N-[2-(pyridin-3-yl)-1,3-benzoxazol-5-yl]pyridine-2-carboxamide], the IC50 was under 100 nM.

Regarding `O=C(Nc1ccc2oc(-c3cccnc3)nc2c1)c1ccc(Oc2ccccc2)nc1` [6-phenoxy-N-[2-(pyridin-3-yl)-1,3-benzoxazol-5-yl]pyridine-3-carboxamide], the IC50 was under 100 nM.

Turning to `Cn1nc(-c2nc3cc(OCc4ccc(O)cn4)ccc3o2)ccc1=O` [6-{5-[(5-hydroxypyridin-2-yl)methoxy]-1,3-benzoxazol-2-yl}-2-methyl-2,3-dihydropyridazin-3-one], the half-maximal inhibitory concentration (IC50) was under 100 nM.

The molecule `COc1ccc(COc2ccc3oc(-c4ccc(=O)n(C)n4)nc3c2)nc1` [6-{5-[(5-methoxypyridin-2-yl)methoxy]-1,3-benzoxazol-2-yl}-2-methyl-2,3-dihydropyridazin-3-one] had an IC50 of under 100 nM.

`COc1ccc(COc2cnc3oc(-c4ccc(=O)n(C)n4)nc3c2)nc1` [6-{6-[(5-methoxypyridin-2-yl)methoxy]-[1,3]oxazolo[5,4-b]pyridin-2-yl}-2-methyl-2,3-dihydropyridazin-3-one]: the IC50 was under 100 nM.

With `COc1ccc(COc2ccc3oc(N4CCc5cccnc5C4)nc3c2)nc1` [7-{5-[(5-methoxypyridin-2-yl)methoxy]-1,3-benzoxazol-2-yl}-5,6,7,8-tetrahydro-1,7-naphthyridine], the IC50 is under 100 nM.

`COc1ccc(/C=C/C(=O)Nc2ccc3oc(-c4cccnc4)nc3c2)cc1` [(2E)-3-(4-methoxyphenyl)-N-[2-(pyridin-3-yl)-1,3-benzoxazol-5-yl]prop-2-enamide] displayed an IC50 of under 100 nM.

`O=C(Nc1ccc2oc(-c3cccnc3)nc2c1)OCc1ccc(O)cn1` [(5-hydroxypyridin-2-yl)methyl N-[2-(pyridin-3-yl)-1,3-benzoxazol-5-yl]carbamate] showed an IC50 of under 100 nM.

For the molecule `COc1ccc(COC(=O)Nc2ccc3oc(-c4cccnc4)nc3c2)nc1` [(5-methoxypyridin-2-yl)methyl N-[2-(pyridin-3-yl)-1,3-benzoxazol-5-yl]carbamate], the IC50 was under 100 nM.

The molecule `O=C(Nc1ccc2oc(-c3ccccc3)nc2c1)c1ccccc1` [N-(2-phenyl-1,3-benzoxazol-5-yl)benzamide] showed a 50% inhibitory concentration (IC50) of under 100 nM.

With `COc1ccc(Nc2ccc3oc(-c4cccnc4)nc3c2)cc1` [N-(4-methoxyphenyl)-2-(pyridin-3-yl)-1,3-benzoxazol-5-amine], the IC50 was in the range of 100 to 500 nM.

`COc1cncc(NC(=O)c2ccc3oc(-c4cccnc4)nc3c2)c1` [N-(5-methoxypyridin-3-yl)-2-(pyridin-3-yl)-1,3-benzoxazole-5-carboxamide]: the IC50 was under 100 nM.

`COc1ccc(COc2ccc3oc(-c4ccc(NC(C)=O)nc4)nc3c2)nc1` [N-(5-{5-[(5-methoxypyridin-2-yl)methoxy]-1,3-benzoxazol-2-yl}pyridin-2-yl)acetamide] displayed an IC50 of under 100 nM.

`O=C(Nc1ccc2oc(-c3cccnc3)nc2c1)c1cc2ccccc2o1` [N-[2-(pyridin-3-yl)-1,3-benzoxazol-5-yl]-1-benzofuran-2-carboxamide] showed an IC50 of under 100 nM.

`O=C(Nc1ccc2oc(-c3cccnc3)nc2c1)c1ccc2occc2c1` [N-[2-(pyridin-3-yl)-1,3-benzoxazol-5-yl]-1-benzofuran-5-carboxamide] had an IC50 of under 100 nM.

In turn, `O=C(Nc1ccc2oc(-c3cccnc3)nc2c1)C1Cc2ccccc2O1` (stereo not shown) [N-[2-(pyridin-3-yl)-1,3-benzoxazol-5-yl]-2,3-dihydro-1-benzofuran-2-carboxamide] gave an IC50 of under 100 nM.

As for `O=C(Nc1ccc2oc(-c3cccnc3)nc2c1)c1ccc2c(c1)OCO2` [N-[2-(pyridin-3-yl)-1,3-benzoxazol-5-yl]-2H-1,3-benzodioxole-5-carboxamide], the IC50 is under 100 nM.

As for `O=C(Nc1ccc2oc(-c3cccnc3)nc2c1)c1ccc(-c2ncccn2)cc1` [N-[2-(pyridin-3-yl)-1,3-benzoxazol-5-yl]-4-(pyrimidin-2-yl)benzamide], the IC50 was under 100 nM.

On to `O=C(Nc1ccc2oc(-c3cccnc3)nc2c1)c1ccc(C(F)(F)F)nc1` [N-[2-(pyridin-3-yl)-1,3-benzoxazol-5-yl]-6-(trifluoromethyl)pyridine-3-carboxamide], for which the IC50 was under 100 nM.

Take `O=C(Nc1ccc2oc(-c3cccnc3)nc2c1)c1ccc2ccccc2n1` [N-[2-(pyridin-3-yl)-1,3-benzoxazol-5-yl]quinoline-2-carboxamide]: the IC50 is under 100 nM.

(Values after US12258355B2, “Probes for imaging huntingtin protein” (CHDI Foundation, Inc., priority 2014, dated 2025).)
